Results: US6806230B1, “Pyrimidine derivatives and herbicides containing them” (Kumiai Chemical Industry Co., Ltd., priority 1999, dated 2004)
“And” between values parts separate entries of the source, which are not always exact repeats. Identical values can stand only once. Values belong to the compound of their own block, whether it stands above or below them.

Tests used:
barnyard grass (Eo) [1] = assay: Test Example 1: herbicidal effects by flooded paddy field treatment; format: in vivo; parameters: herbicidal effects, Eo (barnyard grass):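 0-5 growth inhibition grade; 5 = over 90%; 4 = 70-90%; 3 = 50-70%; 2 = 30-50%; 1 = 10-30%; 0 = under 10%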; conditions: for Herbicidal effect index, Eo: dose 100 gai/10a, examined on 21st day after treatment, index 0-5 per Table 44; for herbicidal effects, Eo (barnyard grass): dose 100 g active ingredient per 10 ares, examined on the 21st day after treatment, standards of Table 44;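 for Herbicidal effect index, Eo: 0-5 growth inhibition grade; 5 = over 90%; 4 = 70-90%; 3 = 50-70%; 2 = 30-50%; 1 = 10-30%; 0 = under 10%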
In short: (§1)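 Dose: 100 g active ingredient per 10 ares as a diluted wettable powder dripped onto 3 cm floodwater, one day after sowing in puddled paddy soil. Scored by a standard rating scale 21 days later following greenhouse growth.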

green foxtail (Se) = assay: Test Example 2: herbicidal effects by upland soil treatment; format: in vivo; conditions: dose 100 g active ingredient per 10 ares, examined on the 21st day after treatment, standards of Table 44;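 note: 0-5 growth inhibition grade; 5 = over 90%; 4 = 70-90%; 3 = 50-70%; 2 = 30-50%; 1 = 10-30%; 0 = under 10%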
In short: (§2)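 Pre-emergence test: barnyard grass and green foxtail sown in upland soil, then soil surface sprayed with wettable-powder formulation at 100 g active ingredient per 10 ares (100 l per 10 ares). Grown in greenhouse; herbicidal effect scored on a rating scale 21 days after treatment.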

monochoria (Mo) [2] = assay: Test Example 1: herbicidal effects by flooded paddy field treatment; format: in vivo; parameters: herbicidal effects, Mo (monochoria):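 0-5 growth inhibition grade; 5 = over 90%; 4 = 70-90%; 3 = 50-70%; 2 = 30-50%; 1 = 10-30%; 0 = under 10%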; conditions: for Herbicidal effect index, Mo: dose 100 gai/10a, examined on 21st day after treatment, index 0-5 per Table 44; for herbicidal effects, Mo (monochoria): dose 100 g active ingredient per 10 ares, examined on the 21st day after treatment, standards of Table 44;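 for Herbicidal effect index, Mo: 0-5 growth inhibition grade; 5 = over 90%; 4 = 70-90%; 3 = 50-70%; 2 = 30-50%; 1 = 10-30%; 0 = under 10%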
In short: as §1

barnyard grass (Ec) [3] = assay: Test Example 2: herbicidal effects by upland soil treatment; format: in vivo; parameters: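 0-5 growth inhibition grade; 5 = over 90%; 4 = 70-90%; 3 = 50-70%; 2 = 30-50%; 1 = 10-30%; 0 = under 10%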; conditions: dose 100 g active ingredient per 10 ares, examined on the 21st day after treatment; for herbicidal effects, Ec (barnyard grass): standards of Table 44
In short: as §2

barnyard grass (Ec) [4] = assay: Test Example 3: herbicidal effects by foliage treatment in upland field; format: in vivo; parameters: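 0-5 growth inhibition grade; 5 = over 90%; 4 = 70-90%; 3 = 50-70%; 2 = 30-50%; 1 = 10-30%; 0 = under 10%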; conditions: dose 100 g active ingredient per 10 ares, examined on the 14th day after treatment
In short: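 Barnyard grass and green foxtail were grown in upland soil for 2 weeks in a greenhouse. A water-diluted wettable powder was sprayed over the foliage at 100 l per 10 ares, giving 100 g active ingredient per 10 ares. Herbicidal effect was scored on day 14 after treatment.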

barnyard grass (Eo) [5] = assay: Test Example 4: selectivity for a crop plant by flooded paddy field treatment; format: in vivo; parameters: scale not given here; conditions: for Eo (herbicidal effect index): barnyard grass, dose 25 gai/10a, 21st day after treatment, index per Table 44; for Eo (herbicidal effects, index): dose 25 g active ingredient per 10 ares, examined on the 21st day after treatment
In short: (§3)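 Water-surface application in a greenhouse pot test: 25 g active ingredient per 10 ares, given as a diluted wettable powder one day after flooding, with visual rating of herbicidal effect three weeks post-treatment.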

monochoria (Mo) [6] = assay: as above; format: in vivo; parameters: scale not given here; conditions: for Mo (herbicidal effect index): monochoria, dose 25 gai/10a, 21st day after treatment, index per Table 44; for Mo (herbicidal effects, index): dose 25 g active ingredient per 10 ares, examined on the 21st day after treatment
In short: as §3

rice (Or) = assay: as above; format: in vivo; parameters: scale not given here; conditions: rice transplanted at second leaf stage; for Or (herbicidal effect index on crop): dose 25 gai/10a, 21st day after treatment, index per Table 44; for Or (effect on crop plant rice, index): dose 25 g active ingredient per 10 ares, examined on the 21st day after treatment
In short: as §3

wheat (Tr) = assay: Test Example 5: selectivity for a crop plant by soil treatment in upland field; format: in vivo; parameters: scale not given here; conditions: dose 25 gai/10a, 21st day after treatment, index per Table 44
In short: (§4)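 Upland soil in pots was sown with barnyard grass, green foxtail, soybean, wheat and corn. A diluted wettable powder was sprayed onto the soil surface (100 l per 10 ares) at 25 g active ingredient per 10 ares. Herbicidal effect was scored against a rating standard 21 days after treatment, with plants grown in a greenhouse.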

barnyard grass (Ec) [7] = assay: as above; format: in vivo; parameters: scale not given here; conditions: dose 25 gai/10a, 21st day after treatment, index per Table 44
In short: as §4

corn (Ze) = assay: as above; format: in vivo; parameters: scale not given here; conditions: dose 25 gai/10a, 21st day after treatment, index per Table 44
In short: as §4

soybean (G1) = assay: as above; format: in vivo; parameters: scale not given here; conditions: dose 25 gai/10a, 21st day after treatment, index per Table 44
In short: as §4

Structure (SMILES): COCN(C(=O)Cc1ccc(Cl)cc1)C(c1cncnc1C(F)(F)F)C(C)C (stereo not drawn) [Compound 1-105, N-methoxymethyl-N-[2-methyl-1-(4-trifluoromethylpyrimidin-5-yl)propyl]-4-chlorophenylacetamide]
Herbicidal effect index, Eo (barnyard grass (Eo) [1]): 5 | melting point: 142 to 145 °C | herbicidal effects, Se (green foxtail) (green foxtail (Se)): 5 | Herbicidal effect index, Mo (monochoria (Mo) [2]): 5 | herbicidal effects, Ec (barnyard grass) (barnyard grass (Ec) [3]): 5

Structure (SMILES): CC(C)C(c1cncnc1C(F)(F)F)N(C)C(=O)N(C)Cc1ccc(Cl)cc1 (stereo not drawn) [Compound 1-532, 1-(4-chlorobenzyl)-1,3-dimethyl-3-[2-methyl-1-(4-trifluoromethyl-pyrimidin-5-yl)-propyl]-urea]
herbicidal effects, Eo (barnyard grass) (barnyard grass (Eo) [1]): 5 | melting point: 95 to 98 °C and 95 to 96 °C | herbicidal effects, Mo (monochoria) (monochoria (Mo) [2]): 5 | Ec (herbicidal effects, index) (barnyard grass (Ec) [3]): 5 | Eo (herbicidal effect index) (barnyard grass (Eo) [5]): 5 | Mo (herbicidal effect index) (monochoria (Mo) [6]): 5 | Or (herbicidal effect index on crop) (rice (Or)): 1 | Ec (herbicidal effects, index) (barnyard grass (Ec) [4]): 5

Structure (SMILES): CC(C(=O)N(C)C(c1cncnc1C(=O)O)C(C)C)c1ccc(Cl)cc1 (single isomer, unassigned) [Compound 1-718, 5-(1-{[2-(4-chlorophenyl)-propionyl]methylamino}-2-methylpropyl)-pyrimidine-4-carboxylic acid]
melting point: 168 to 170 °C

Structure (SMILES): CC(C)C(c1cncnc1C(F)(F)F)N(C)C(=O)Cc1ccccc1 (stereo not drawn) [Compound 1-8, N-methyl-N-[2-methyl-1-(4-trifluoromethylpyrimidin-5-yl)propyl]phenylacetamide]
Herbicidal effect index, Eo (barnyard grass (Eo) [1]): 5 | melting point: 106 to 109 °C | herbicidal effects, Se (green foxtail) (green foxtail (Se)): 5 | Herbicidal effect index, Mo (monochoria (Mo) [2]): 5 | herbicidal effects, Ec (barnyard grass) (barnyard grass (Ec) [3]): 5 | Ec (herbicidal effects, index) (barnyard grass (Ec) [4]): 5

Structure (SMILES): CC(C)C(c1cncnc1C(F)(F)F)N(C)C(=S)Cc1ccccc1 (stereo not drawn) [Compound 1-142, N-methyl-N-[2-methyl-1-(4-trifluoromethylpyrimidin-5-yl)propyl]phenylthioacetamide]
herbicidal effects, Eo (barnyard grass) (barnyard grass (Eo) [1]): 5 | melting point: 93 to 94 °C | herbicidal effects, Se (green foxtail) (green foxtail (Se)): 5 | herbicidal effects, Mo (monochoria) (monochoria (Mo) [2]): 5 | herbicidal effects, Ec (barnyard grass) (barnyard grass (Ec) [3]): 5 | Ec (herbicidal effects, index) (barnyard grass (Ec) [4]): 4

Structure (SMILES): CC(C)C(c1cncnc1C1CC1)N(C)C(=O)Cc1ccc(Cl)cc1 (racemic) [Compound 1-78]
Herbicidal effect index, Eo (barnyard grass (Eo) [1]): 5 | herbicidal effects, Se (green foxtail) (green foxtail (Se)): 5 | Herbicidal effect index, Mo (monochoria (Mo) [2]): 5 | herbicidal effects, Ec (barnyard grass) (barnyard grass (Ec) [3]): 5 | Tr (herbicidal effect index on crop) (wheat (Tr)): 1 | Ec (herbicidal effect index) (barnyard grass (Ec) [7]): 5 | Ze (herbicidal effect index on crop) (corn (Ze)): 0 | Gl (herbicidal effect index on crop) (soybean (G1)): 0 | Eo (herbicidal effects, index) (barnyard grass (Eo) [5]): 5 | Mo (herbicidal effects, index) (monochoria (Mo) [6]): 5 | Or (effect on crop plant rice, index) (rice (Or)): 1 | Ec (herbicidal effects, index) (barnyard grass (Ec) [4]): 5

Structure (SMILES): CC(C)C(c1cncnc1C(F)(F)F)N(C(=O)Cc1ccc(F)cc1)C1CC1 (racemic) [Compound 1-83]
Herbicidal effect index, Eo (barnyard grass (Eo) [1]): 5 | herbicidal effects, Se (green foxtail) (green foxtail (Se)): 5 | Herbicidal effect index, Mo (monochoria (Mo) [2]): 5 | herbicidal effects, Ec (barnyard grass) (barnyard grass (Ec) [3]): 5 | Tr (herbicidal effect index on crop) (wheat (Tr)): 2 | Ec (herbicidal effect index) (barnyard grass (Ec) [7]): 5 | Ze (herbicidal effect index on crop) (corn (Ze)): 1 | Gl (herbicidal effect index on crop) (soybean (G1)): 1 | Eo (herbicidal effects, index) (barnyard grass (Eo) [5]): 5 | Mo (herbicidal effects, index) (monochoria (Mo) [6]): 5 | Or (effect on crop plant rice, index) (rice (Or)): 1 | Ec (herbicidal effects, index) (barnyard grass (Ec) [4]): 5

Structure (SMILES): CN(C(=O)Cc1ccc(Cl)cc1)C(c1cncnc1C(F)(F)F)C(C)(C)C (racemic) [Compound 1-54]
Herbicidal effect index, Eo (barnyard grass (Eo) [1]): 5 | herbicidal effects, Se (green foxtail) (green foxtail (Se)): 5 | Herbicidal effect index, Mo (monochoria (Mo) [2]): 5 | herbicidal effects, Ec (barnyard grass) (barnyard grass (Ec) [3]): 5 | Tr (herbicidal effect index on crop) (wheat (Tr)): 1 | Ec (herbicidal effect index) (barnyard grass (Ec) [7]): 4 | Ze (herbicidal effect index on crop) (corn (Ze)): 0 | Gl (herbicidal effect index on crop) (soybean (G1)): 0 | Eo (herbicidal effects, index) (barnyard grass (Eo) [5]): 5 | Mo (herbicidal effects, index) (monochoria (Mo) [6]): 5 | Or (effect on crop plant rice, index) (rice (Or)): 1 | Ec (herbicidal effects, index) (barnyard grass (Ec) [4]): 5

Further lines, with some results ahead:

melting point: 104 to 105 °C
Structure (SMILES): CC(C)C(c1cncnc1C(F)(F)F)N(C)C(=O)N(C)c1ccccc1 (stereo not drawn) [Compound 1-424, 1,3-dimethyl-1-[2-methyl-1-(4-trifluoromethyl-pyrimidin-5-yl)-propyl]-3-phenylurea]
herbicidal effects, Eo (barnyard grass) (barnyard grass (Eo) [1]): 5 | herbicidal effects, Mo (monochoria) (monochoria (Mo) [2]): 5 | Ec (herbicidal effects, index) (barnyard grass (Ec) [3]): 5 | Ec (herbicidal effects, index) (barnyard grass (Ec) [4]): 4

Or (effect on crop plant rice, index) (rice (Or)): 0
Structure (SMILES): CC(C)C(c1cncnc1C(F)(F)F)N(C(=O)Cc1ccc(Cl)cc1)C1CC1 (racemic) [Compound 1-81]
Herbicidal effect index, Eo (barnyard grass (Eo) [1]): 5 | herbicidal effects, Se (green foxtail) (green foxtail (Se)): 5 | Herbicidal effect index, Mo (monochoria (Mo) [2]): 5 | herbicidal effects, Ec (barnyard grass) (barnyard grass (Ec) [3]): 5 | Tr (herbicidal effect index on crop) (wheat (Tr)): 1 | Ec (herbicidal effect index) (barnyard grass (Ec) [7]): 4 | Ze (herbicidal effect index on crop) (corn (Ze)): 0 | Gl (herbicidal effect index on crop) (soybean (G1)): 0 | Eo (herbicidal effects, index) (barnyard grass (Eo) [5]): 5 | Mo (herbicidal effects, index) (monochoria (Mo) [6]): 5 | Ec (herbicidal effects, index) (barnyard grass (Ec) [4]): 4

melting point: 80 to 81 °C
Structure (SMILES): CC(C)C(c1cncnc1C#N)N(C)C(=O)Cc1ccccc1 (stereo not drawn) [Compound 1-504, N-[1-(4-cyanopyrimidin-5-yl)-2-methylpropyl]-N-methylphenylacetamide]
herbicidal effects, Eo (barnyard grass) (barnyard grass (Eo) [1]): 5 | herbicidal effects, Mo (monochoria) (monochoria (Mo) [2]): 5 | Ec (herbicidal effects, index) (barnyard grass (Ec) [3]): 5 | Eo (herbicidal effect index) (barnyard grass (Eo) [5]): 5 | Mo (herbicidal effect index) (monochoria (Mo) [6]): 5 | Or (herbicidal effect index on crop) (rice (Or)): 1 | Ec (herbicidal effects, index) (barnyard grass (Ec) [4]): 5

Or (effect on crop plant rice, index) (rice (Or)): 1
Structure (SMILES): CCN(C(=O)Cc1ccc(Cl)cc1)C(c1cncnc1C(F)(F)F)C(C)C (racemic) [Compound 1-48]
Herbicidal effect index, Eo (barnyard grass (Eo) [1]): 5 | herbicidal effects, Se (green foxtail) (green foxtail (Se)): 5 | Herbicidal effect index, Mo (monochoria (Mo) [2]): 5 | herbicidal effects, Ec (barnyard grass) (barnyard grass (Ec) [3]): 5 | Tr (herbicidal effect index on crop) (wheat (Tr)): 1 | Ec (herbicidal effect index) (barnyard grass (Ec) [7]): 4 | Ze (herbicidal effect index on crop) (corn (Ze)): 0 | Gl (herbicidal effect index on crop) (soybean (G1)): 0 | Eo (herbicidal effects, index) (barnyard grass (Eo) [5]): 5 | Mo (herbicidal effects, index) (monochoria (Mo) [6]): 5 | Ec (herbicidal effects, index) (barnyard grass (Ec) [4]): 5

melting point: 171 to 172 °C
Structure (SMILES): CC(C)C(c1cncnc1C=NO)N(C)C(=O)Cc1ccccc1 (stereo not drawn) [Compound 1-500, N-[1-(4-hydroxyiminomethylpyrimidin-5-yl)-2-methylpropyl]-N-methylphenylacetamide]
herbicidal effects, Eo (barnyard grass) (barnyard grass (Eo) [1]): 5 | herbicidal effects, Mo (monochoria) (monochoria (Mo) [2]): 5

melting point: 99 to 100 °C
Structure (SMILES): CC(C)C(c1cncnc1C(F)(F)F)N(C)C(=O)Cc1ccccn1 (stereo not drawn) [Compound 2-3, N-methyl-N-[2-methyl-1-(4-trifluoromethylpyrimidin-5-yl)propyl]-2-pyridylacetamide]
herbicidal effects, Eo (barnyard grass) (barnyard grass (Eo) [1]): 5 | herbicidal effects, Mo (monochoria) (monochoria (Mo) [2]): 5
